This series concerns RSV. Kind of series: anti-RSV activity in infected HEp-2 cells (reduction of cytopathic effects, neutral red uptake assay). Format: cell-based, Respiratory Syncytial Virus. An excerpt: A comparison of the efficacies of RBI245 treatment and conventional ribarvirin treatment can be obtained by determining the RSV-inhibitory concentration and the cytotoxic concentration of each compound. Cultures of the human laryngeal carcinoma cell line HEp-were established and infected with an MOI=0.02. Treatment with either ribavirin or RBI245 was begun one hour post-infection. The effects of treatment on RSV infection were reported as an EC50, the concentration at which there was a 50% reduction in the observable cytopathic effects of infection. The results of the treatment of HEp-2 cells with RBI245, ribavirin, and other activator-antisense complexes are shown in FIG. 1 and summarized in Table 2. […] Therefore, the activity of RBI245 in vitro is more than 1000-fold better than ribavarin, the only approved drug for the treatment of RSV. No toxicity was found for any of the 2-5A oligonucleotide compounds up to the maximum dosage tested (3.2 μM).

Where [1] appears, read: HEp-2 cells infected with RSV, MOI=0.02, treatment begun one hour post-infection, read-out: EC50 in μM (50% Effective dose based on neutral red uptake assay).

Where two headings read alike, the source gives them in different places. Oligonucleotides are written 5' to 3', each unit as a sugar letter and its base; * is a phosphorothioate linkage, no mark a phosphodiester; rarer units and linkages stand in square brackets, end groups in braces. Plain capitals give the bases only. {spA4} = thiophosphorylated 2',5'-linked tetraadenylate (2-5A), RNase L activator; {spA3} = thiophosphorylated 2',5'-linked triadenylate (2-5A), RNase L activator; {S9} = spacer 9 linker, triethylene glycol phosphate; {BU2} = two butanediol phosphate linkers; m = 2'-O-methyl Where only a bound is given, the exact number is not on record here.

Take “5′sp-A2′s5′A2′s5′A2′s5′A2′-p(CH2CH2O)3-p-5′(AsAsAsAAUGGGGCAAAsUsAsA)m03′ (antisense {spA4}-{S9}-mA*mA*mA*mAmAmUmGmGmGmGmCmAmAmA*mU*mA*mA; 5' 2-5A activator attached via triethylene glycol linker, further chemistry not given here) [RBI245]”: the EC50 (HEp-2 cells, MOI=0.02, treatment one hour post-infection, read-out: EC50, concentration at which there was a 50% reduction in the observable cytopathic effects of infection) worked out at 0.02 µM. Besides, the “anti-RSV activity in vitro relative to ribavirin” value (ratio of in vitro potency versus ribavirin) was “more than 1000 fold”. On to “spA4-BU2-(GsAsTsAGAAATAGAAAsGsCsA)m-3′ (GATAGAAATAGAAAGCA; antisense; all 2'-O-methyl, linkages s3 o10 s3 (s phosphorothioate, o phosphodiester), 5' {spA4}-{BU2}, T or U not given here; 5' 2-5A activator attached via linker) [RBI066, scrambled control, reference compound]”, for which, under setting [1], the EC50 was over 3.2 µM. In the case of `NC(=O)c1ncn([C@@H]2O[C@H](CO)[C@@H](O)[C@H]2O)n1` [Ribavirin, reference compound], the EC50 is 60 µM (human respiratory syncytial virus, 1 h, HEp-2 cells infected with RSV, MOI=0.02, treatment begun one hour post-infection, read-out: EC50 in μM (50% Effective dose based on neutral red uptake assay)) and 60 µM (human respiratory syncytial virus, 1 h, HEp-2 cells, MOI=0.02, treatment one hour post-infection, read-out: EC50, concentration at which there was a 50% reduction in the observable cytopathic effects of infection). “(spA)3-S9-(AsAsAsAAUGGGGCAsAsA)m-3′ ({spA3}-{S9}-mA*mA*mA*mAmAmUmGmGmGmGmCmA*mA*mA; antisense; 5' 2-5A activator attached via linker) [RBI243, shortened version of 245]”: the EC50 under setting [1] is 0.3 µM. The same measure, in the same setting: for “spA4-BU2-(AsAsAsAAUGGGGCAAAsUsAsA)m3′ ({spA4}-{BU2}-mA*mA*mA*mAmAmUmGmGmGmGmCmAmAmA*mU*mA*mA; antisense; 5' 2-5A activator attached via linker) [RBI034]” the value was 0.6 µM.
